Reference: patent publication US9226950B2, “Method and composition for treating diabetes mellitus” (National Dong Hwa University, priority 2013, dated 2016)

Columns and labels:
[1] = molecular target: T1, Insr (Rattus norvegicus, UniProt P15127); test: Phosphorylation of insulin receptors (Tyr1158/Tyr1162/Tyr1163) in L6 cells, Western blot; format: cell-based; conditions: FIG. 1(a)
T1 construct: L6 cells were fully differentiated with α-MEM supplemented with 2% FBS for 5 days to myotubes; endogenous in cells; host or cells: L6 myoblasts differentiated to myotubes
T1 sequence (P15127 27-759 limits assumed): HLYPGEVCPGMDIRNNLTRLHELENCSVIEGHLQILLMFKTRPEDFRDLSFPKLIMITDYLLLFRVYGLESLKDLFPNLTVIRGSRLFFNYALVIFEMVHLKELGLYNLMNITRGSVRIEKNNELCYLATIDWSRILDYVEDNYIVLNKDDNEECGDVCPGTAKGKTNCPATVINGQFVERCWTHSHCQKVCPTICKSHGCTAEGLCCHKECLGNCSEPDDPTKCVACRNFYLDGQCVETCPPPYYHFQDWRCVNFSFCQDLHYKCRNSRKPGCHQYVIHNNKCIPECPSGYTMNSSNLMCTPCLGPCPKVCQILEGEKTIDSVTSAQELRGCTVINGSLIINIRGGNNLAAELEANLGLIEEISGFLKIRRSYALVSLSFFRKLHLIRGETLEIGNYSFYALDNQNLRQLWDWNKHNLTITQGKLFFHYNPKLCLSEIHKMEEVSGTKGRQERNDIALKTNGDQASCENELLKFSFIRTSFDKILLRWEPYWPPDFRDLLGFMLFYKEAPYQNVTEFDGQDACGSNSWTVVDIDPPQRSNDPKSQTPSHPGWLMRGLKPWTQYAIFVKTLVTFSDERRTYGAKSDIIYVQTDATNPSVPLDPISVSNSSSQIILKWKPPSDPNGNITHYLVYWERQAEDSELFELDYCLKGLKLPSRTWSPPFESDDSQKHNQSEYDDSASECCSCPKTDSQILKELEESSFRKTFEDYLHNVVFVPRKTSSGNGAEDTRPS
T1 sequence (P15127 764-1383 limits assumed): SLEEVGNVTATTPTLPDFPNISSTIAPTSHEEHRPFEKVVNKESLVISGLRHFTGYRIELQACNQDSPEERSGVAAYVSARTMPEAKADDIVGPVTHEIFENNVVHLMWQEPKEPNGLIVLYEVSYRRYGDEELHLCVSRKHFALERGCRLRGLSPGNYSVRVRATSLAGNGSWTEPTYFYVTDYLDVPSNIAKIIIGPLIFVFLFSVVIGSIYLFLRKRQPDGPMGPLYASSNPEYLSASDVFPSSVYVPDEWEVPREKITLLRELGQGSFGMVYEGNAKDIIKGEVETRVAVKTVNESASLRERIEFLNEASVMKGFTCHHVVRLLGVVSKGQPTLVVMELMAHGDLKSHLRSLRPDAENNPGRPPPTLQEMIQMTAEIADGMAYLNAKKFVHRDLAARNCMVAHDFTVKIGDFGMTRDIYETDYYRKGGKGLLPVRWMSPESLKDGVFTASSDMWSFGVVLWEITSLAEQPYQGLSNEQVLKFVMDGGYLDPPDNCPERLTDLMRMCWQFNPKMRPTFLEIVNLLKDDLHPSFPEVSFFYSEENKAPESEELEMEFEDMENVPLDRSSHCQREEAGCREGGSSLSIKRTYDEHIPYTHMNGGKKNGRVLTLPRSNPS
Method: […] muscle myoblast cells (L6) was a generous gift from Professor Hitoshi Ashida's Lab. (Kobe University, Kobe, Japan). The cells were grown and maintained in α-minimal essential medium (α-MEM, 12000022, GIBCO, CA, USA) containing 10% fetal bovine serum (FBS, GIBCO) and 1% penicillin streptomycin (GIBCO) in a cell culture incubator with 5% CO2 at 37° C. Prior to the following experiments, the cells were seeded and cultured at a density of 8×10^3 cells per well in 96-well plates or 2.5×10^5 cells per well in 6-well plates. After the myoblasts achieved 80% confluence, the cells were incubated for 5 days in the α-MEM supplemented with 2% FBS to induce differentiation to myotubes.
L6 cells were fully differentiated with α-MEM supplemented with 2% FBS for 5 days to myotubes. The cells were washed twice with Phosphate Buffered Saline (PBS) containing 0.1% BSA and subsequently incubated α-MEM containing 0.25% BSA with or without 100 nM of S961, and treated with or without 100 μM of Tetracosanol for 90 min. Then, the cells were treated with or without 10 μM of insulin for 5 min. […] The levels of the proteins including phospho-Insulin receptors (Tyr1158/Tyr1162/Tyr1163) and Insulin receptor (Cell Signaling, Boston, Mass., USA) were detected and evaluated by Western blot with primary antibody.
The cells after treatments were collected and washed twice in cold KRH buffer, and then lysed in ice-cold RIPA buffer incubation at 4° C. for 60 min. After centrifugation at 12,000×g for 30 min at 4° C., the supernatant was kept and quantified by Bradford protein assay (Bio-Rad, Hercules, Calif., USA). […] The signals were monitored using Western Lightning™ Plus-ECL (Perkin Elmer Life Sciences) and the PVDF membrane was exposed to Luminescent image analyzer (LAS)-3000 (Fujifilm, Minato, Tokyo, Japan). Acquired data were analyzed and compared the difference among treatments. […]

[2] = system: GLUT4; test: GLUT4 translocation assay in differentiated C2C12 myotubes; format: cell-based, mouse; conditions: FIG. 3
Method: Mouse muscle myoblast cells (C2C12) were obtained from the Food Industry Research and Development Institute (FIRDI, Hsinchu, Taiwan). The cells were grown and maintained in Dulbecco's Modified Eagle's Medium high glucose (DMEM-high glucose; GIBCO, CA, USA) containing 10% fetal bovine serum (FBS, GIBCO) and 1% penicillin streptomycin (GIBCO) in a cell culture incubator with 5% CO2 at 37° C. Prior to the following experiments, the cells were seeded and cultured at a density of 8×10^3 cells per well in 96-well plates or 2.5×10^5 cells per well in 6-well plates. […]
The C2C12 cells were fully differentiated with DMEM supplemented with 1% FBS and 1% horse serum for 4 days. […] The translocation changes of GLUT4 of the cells were detected. […] The HRP activity was determined by measuring the absorbance at 450 nm with a spectrophotometer (EnSpire 2300 Multilabel Reader, Perkin Elmer, Waltham, Mass., USA).
To detect the effect of tetracosanol on Glut4 translocation in S961-induced insulin resistance, the differentiated C2C12 cells were treated with or without 20 nM S961 (S961) followed by 185 μM of insulin (Ins), and treated with or without 100 μM of Tetracosanol (Tet) (n=4 in each group). […] At the cellular level, the ability of glucose uptake was determined by controlling the amount of the GLUT4 glucose transporter present in the plasma membrane. […]

phosphorylation of phospho-Insr on Tyr1158, 1162, and 1163 ([1]; insulin plus tetracosanol (Ins+Tet): 100 μM tetracosanol 90 min, then 10 μM insulin 5 min): tended to be enhanced | phosphorylation of phospho-Insr on Tyr1158, 1162, and 1163 ([1]; insulin with S961 plus tetracosanol (Ins+S961+Tet): 100 nM S961, 100 μM tetracosanol, 10 μM insulin): tended to be enhanced
SMILES: CCCCCCCCCCCCCCCCCCCCCCCCO [tetracosanol]
insulin-dependent GLUT4 translocation ([2]; insulin resistance C2C12 differentiated myotubes induced by 20 nM S961, insulin plus tetracosanol (100 μM)): provided the recovery ability | insulin-dependent GLUT4 translocation ([2]; normal C2C12 differentiated myotubes (Ins), 100 μM tetracosanol, 185 μM insulin): no effects
